Drawing on the Bradley open melting point set (2014), this text covers melting point for 88 molecules.

Where “and” joins values, the source holds several entries; their conditions need not be identical. Identical values can stand only once.

Usually melting point stands for the temperature of the solid-liquid transition. `Cc1c(C2(c3cc(Br)c(O)c(Br)c3C)OS(=O)(=O)c3ccccc32)cc(Br)c(O)c1Br` had a melting point of 225 °C.
As for `CC(C)(Oc1ccc(CCNC(=O)c2ccc(Cl)cc2)cc1)C(=O)O` [bezafibrate], the figure is 186 °C; as for `O=C(O)Cc1ccc(OC(F)(F)F)cc1` [4-(trifluoromethoxy)phenylacetic acid], 87 °C.
As for `CC(=O)Nc1ccc(Br)cc1C` [4'-bromo-2'-methylacetanilide], the figure is 156 °C; as for `Cc1cc[n+]([O-])cc1C(=O)NN` [4-methylpyridine-3-carbohydrazide 1-oxide], 226 °C.
As for `C=Cc1ccc(C#N)cc1` [p-cyanostyrene], the figure is -15 °C; as for `Cc1cc(=O)oc2cc(O)ccc12` [4-methylumbelliferone], 189 °C.
In turn, `Cc1nc(N)ccc1C#N` [6-amino-3-cyano-2-methylpyridine] displayed a melting point of 165 °C.
The same measure for `COc1cc(C)ccc1O` [2-methoxy-4-methylphenol]: 6 °C; for `c1ccc2c(c1)cc1ccc3cccc4ccc2c1c34` [Benzo[a]pyrene]: 176 °C; for `CCN(C)C` [N,N-Dimethylethanamine]: -140 °C.
As for `Cc1c(C(=O)O)cc([N+](=O)[O-])cc1[N+](=O)[O-]` [2-Methyl-3,5-dinitrobenzoic acid], the figure is 206 °C.
As for `CC(=O)OC1CCC2C3CCC4CC(=C(C)C)CCC4(C)C3CCC12C` (stereo not drawn) [3-(1-methylethylidene)androstan-17-yl acetate], the figure is 108 °C.
Turning to `CCCCCCCCCCCCBr` [1-bromododecane], the melting point is -10 °C.
The same measure for `COc1cc(Cl)cc(OC)c1` [1-chloro-3,5-dimethoxybenzene]: 34 °C; for `Cc1ccc2c(c1)no[n+]2[O-]` [5-Methylbenzofurazan oxide]: 96 °C; for `C=CCOc1ccc(CC(=O)O)cc1Cl` [alclofenac]: 92.5 °C.
For `C=C(C)C1CC=C(C)/C(=N/O)C1` (stereo not drawn) [(1E)-5-Isopropenyl-2-methyl-2-cyclohexen-1-one oxime], the melting point worked out at 72 °C.
The same measure for `CCOC(=O)CC` [ethyl_propionate]: -73 °C.
As for `CCN(CC)CCNC(=O)c1cc(Cl)c(N)cc1OC` [Metoclopramide], the figure is 147 °C; as for `CC(=O)O[C@H]1O[C@@H](COC(=O)c2ccccc2)[C@H](OC(=O)c2ccccc2)[C@@H]1OC(=O)c1ccccc1` [1-o-acetyl-2,3,5-tri-o-benzoyl-beta-D-ribofuranose], 129 °C.
The same measure for `Cc1cc(B(O)O)sc1C=O` [5-formyl-4-methylthiophene-2-boronic acid]: 119 °C.
`C=C1CCC2CC1C2(C)C` (stereo not drawn) [b-pinene] returned a melting point of -61 °C.
As for `C=CCC(CC)(CC)C(N)=O` [novonal], the figure is 75 °C; as for `Cn1c(=O)c2c(ncn2C)n(C)c1=O` [caffeine], 238 °C (2×) and 235 °C (2×); as for `Oc1ccccc1/C=N/n1c(S)nnc1C(F)(F)F`, 156 °C.
The same measure for `O=C(Oc1ccccc1)c1ccccc1O` [phenyl salicylate]: 43 °C; for `CC(Br)CBr` (stereo not drawn) [1,2-dibromopropane]: -55 °C.
As for `Cc1ccnc(NS(=O)(=O)c2ccc(N)cc2)n1` [sulfamerazine], the figure is 236 °C.
The molecule `CCc1cnc(C(=O)O)c(C(=O)O)c1` [5-ethylpyridine-2,3-dicarboxylic acid] registered a melting point of 153 °C.
The same measure for `CCCCCC(=O)O` [hexanoic acid]: -3 °C; for `CCOC(=O)c1ccc(O)cc1` [ethylparaben]: 116 °C.
As for `N#CCC(N)=O` [cyanoacetamide], the figure is 120 °C.
As for `NC(=O)c1cccnc1` [Nicotinamide], the figure is 130 °C.
`Brc1cccnc1` [3-bromopyridine]: the melting point was -27 °C.
The same measure for `Sc1nc2ccccc2s1` [2-mercaptobenzothiazole]: 180 °C; for `Brc1ccc(Br)cc1` [1,4-Dibromobenzene]: 88 °C; for `OB(O)c1c(F)c(F)c(F)c(F)c1F` [2,3,4,5,6-pentafluorobenzeneboronic acid]: 253 °C.
As for `OCc1cccc(Oc2ccccc2)c1` [(3-Phenoxyphenyl)methanol], the figure is 10 °C; as for `CC1(C)O[C@@H]2CO[C@]3(COC(C)(C)O3)C(=O)[C@@H]2O1` [D-epoxone], 102 °C.
In turn, `COc1ccccc1B(O)O` [2-methoxybenzeneboronic acid] yielded a melting point of 104 °C.
As for `C[C@@H]1C[C@H]2[C@@H]3CCC4=CC(=O)C=C[C@]4(C)[C@@]3(F)[C@@H](O)C[C@]2(C)[C@@]1(O)C(=O)CO` [Dexamethasone], the figure is 262 °C; as for `CCCOC(=O)c1ccc(O)cc1` [Propyl 4-hydroxybenzoate], 96.5 °C; as for `Clc1cccc(-c2nnn[nH]2)c1` [5-(3-chlorophenyl)-1h-tetrazole], 140 °C.
As for `CC(C)(C)c1cccc(C(C)(C)C)c1O` [2,6-di-tert-butylphenol], the figure is 37 °C; as for `CC(=O)c1cccc([N+](=O)[O-])c1` [1-(3-Nitrophenyl)ethanone], 81 °C; as for `Cc1c(C)c(C)c(C)c(C)c1C` [hexamethylbenzene], 164 °C and 168 °C.
As for `CN1/C(=C(\O)Nc2ccccn2)C(=O)c2ccccc2S1(=O)=O` [Piroxicam], the figure is 198 °C; as for `N#Cc1cccc(O)c1` [3-cyanophenol], 82 °C.
Molecule `C=CC(=O)O` [acrylic acid] gave a melting point of 13 °C.
With `Cc1cccc(C)c1C` [1,2,3-trimethylbenzene], the melting point is -25 °C.
The same measure for `COc1nccnc1NS(=O)(=O)c1ccc(N)cc1` [Sulfametopyrazine]: 170 °C.
As for `CN(C)C(=O)Nc1ccc(Cl)c(Cl)c1` [diuron], the figure is 158 °C (2×) and 159 °C; as for `Cc1ccc(N)cc1` [p-toluidine], 44 °C; as for `CCCCCCC(=O)O` [heptanoic acid], -8 °C.
The same measure for `Cc1ccc(C)n1-c1ccccc1` [2,5-dimethyl-1-phenylpyrrole]: 50 °C; for `Oc1cccc(Cl)c1` [3-Chlorophenol]: 33 °C and 32.6 °C.
In turn, `O=C(O)CCc1ccc(B(O)O)cc1` [4-(2-carboxyethyl)benzeneboronic acid] returned a melting point of 147 °C.
As for `C/C(=C/C(=O)NN)C(=O)NN` [citraconic hydrazide], the figure is 286 °C.
As for `CNC(=NC#N)NCCSCc1nc[nH]c1C` [cimetidine], the figure is 141 °C; as for `CSc1ccc(C(=O)c2[nH]c(=O)[nH]c2C)cc1` [Enoximone], 256 °C.
As for `NC(=O)/C(=N\Nc1ccc(F)cc1)c1nc2ccccc2s1`, the figure is 159 °C; as for `CCCCCCC(O)CO` (stereo not drawn) [1,2-octanediol], 31 °C; as for `NC(=O)c1c(-c2ccccc2)nn(-c2ccccc2)c1N` [5-amino-1,3-diphenyl-1H-pyrazole-4-carboxamide], 200 °C.
`N#CCCC#N` [succinonitrile]: the melting point was determined as 56 °C.
As for `CC[C@H]1OC(=O)[C@H](C)[C@@H](O[C@@H]2C[C@](C)(OC)[C@H](O)[C@@H](C)O2)[C@H](C)[C@@H](O[C@@H]2O[C@H](C)C[C@H](N(C)C)[C@H]2O)[C@](C)(OC)C[C@@H](C)C(=O)[C@H](C)[C@@H](O)[C@]1(C)O` [Clarithromycin], the figure is 218 °C; as for `CCCCC#N` [valeronitrile], -96 °C.
As for `C1=CCCCC1` [cyclohexene], the figure is -104 °C; as for `CCOC(=O)c1ccc(-n2cccc2)cc1` [ethyl 4-(1-pyrrolyl)benzoate], 75 °C; as for `CCOC(=O)c1ccc(N)cc1` [ethyl p-aminobenzoate], 89 °C.
The same measure for `NC(=O)c1ccc(Br)cc1` [4-bromobenzamide]: 192 °C; for `Cc1ccc(S(=O)(=O)NC2CCCCC2)cc1` [N-Cyclohexyl-4-methylbenzenesulfonamide]: 84.5 °C.
The molecule `CC(C)CCC[C@@H](C)[C@H]1CC[C@H]2[C@@H]3CCC4=CC(=O)CC[C@]4(C)[C@H]3CC[C@]12C` [4-cholesten-3-one] yielded a melting point of 80 °C.
As for `CCC(C)Cl` (stereo not drawn) [2-chlorobutane], the figure is -141 °C; as for `CC(N)=O` [acetamide], 80 °C; as for `COc1ccc(C=C2N=C(c3ccccc3)OC2=O)cc1` [4-(4-methoxybenzylidene)-2-phenyl-1,3-oxazol-5(4H)-one], 152 °C.
In the case of `CC(C)(C)N1CCNC1=O` [1-tert-butyl-2-imidazolidinone], the melting point was 137 °C.
The same measure for `Cn1c(=O)c2[nH]cnc2n(C)c1=O` [Theophylline]: 270 °C.
In turn, `O=Cc1ccc(O)c(O)c1O` [2,3,4-trihydroxybenzaldehyde] came in with a melting point of 161 °C.
Take `O=C(NC1CCCCC1)c1ccccc1` [N-cyclohexylbenzamide]: the melting point is 162 °C.
The same measure for `C=C(C)CC(C)(C)C` [2,4,4-Trimethylpent-1-ene]: -94 °C; for `CCOC(=O)c1ccccc1C(=O)OCC` [diethyl phthalate]: -64 °C.
The same measure for `CCOC(=O)C(C=Cc1cccc(C=CC(C(=O)OCC)C(=O)OCC)c1)C(=O)OCC`: 101 °C.
As for `OCCN1CCOCC1` [4-(2-hydroxyethyl)morpholine], the figure is 2 °C.
In turn, `O=C1OCCOC(=O)C2CCCCC2C(=O)OCCOC(=O)C2CCCCC12` (stereo not drawn) had a melting point of 140 °C.
In turn, `CCCCOc1ccccc1` [butyl_phenyl_ether] registered a melting point of -19 °C.
`CC1(C)c2ccccc2N(Cc2ccccc2)C12C=Cc1cc([N+](=O)[O-])ccc1O2` (stereo not drawn) registered a melting point of 159 °C.
As for `c1ccc2cc3ccccc3cc2c1` [anthracene], the melting point is 216 °C (4×) and 218 °C.
